Several values for one entry are separate records, joined by “and”; a condition that tells them apart may be missing. Equal values may be shown once. Read-outs that look alike come from different tables or passages of the source. Bounds are passed on as bounds.

The source of these data is article PMC9655037, “Alternation of Organ-Specific Exposure in LPS-Induced Pneumonia Mice after the Inhalation of Tetrandrine Is Governed by Metabolizing Enzyme Suppression and Lysosomal Trapping” (International Journal of Molecular Sciences, 2022).

In data set [1] the target is T1, OATP1B3 (Homo sapiens, UniProt Q9NPD5).
T1 sequence (Q9NPD5 1-702): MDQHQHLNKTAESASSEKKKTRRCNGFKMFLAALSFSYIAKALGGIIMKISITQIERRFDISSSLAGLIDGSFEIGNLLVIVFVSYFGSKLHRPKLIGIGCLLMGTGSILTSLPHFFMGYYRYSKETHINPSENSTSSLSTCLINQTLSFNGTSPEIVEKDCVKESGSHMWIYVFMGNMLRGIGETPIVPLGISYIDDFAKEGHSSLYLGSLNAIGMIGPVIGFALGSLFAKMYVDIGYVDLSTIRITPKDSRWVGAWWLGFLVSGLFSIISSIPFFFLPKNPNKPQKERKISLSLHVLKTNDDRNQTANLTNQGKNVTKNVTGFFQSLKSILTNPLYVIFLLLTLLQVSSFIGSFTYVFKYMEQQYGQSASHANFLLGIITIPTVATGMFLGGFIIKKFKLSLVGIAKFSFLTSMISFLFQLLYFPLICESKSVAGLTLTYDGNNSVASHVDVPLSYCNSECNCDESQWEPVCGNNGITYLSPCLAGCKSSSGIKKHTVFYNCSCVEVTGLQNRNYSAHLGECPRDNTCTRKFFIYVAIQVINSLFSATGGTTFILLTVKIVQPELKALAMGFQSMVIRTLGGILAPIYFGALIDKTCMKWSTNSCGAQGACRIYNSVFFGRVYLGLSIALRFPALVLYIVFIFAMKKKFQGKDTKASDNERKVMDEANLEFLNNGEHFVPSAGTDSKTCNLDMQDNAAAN
Description: Uptake by OATP1B3-expressing HEK293 cells. Conditions: human, 5 min. The method, then: Expressing OATP1B1/OATP1B3 or MOCK HEK293 cells were utilized to evaluate whether TET is a substrate of these two SLC transporters. Cell culture was performed as mentioned above. Cells were seeded on 96-well plates at the density of 0.8 × 10^5 cells/well. The culture medium was replaced with a medium containing 5 mM sodium butyrate for 24 h before the transport study to enhance the expression of transporters. For the transport assay, the DMEM media were removed and the cells were washed with pre-warmed Krebs–Henseleit buffer twice (0.1 mL/well). The second washing buffer was kept in the wells and the plate was incubated at 37 °C for 5 min before the uptake assay was initiated. […] The incubation solution was removed and the cells were washed with ice-cold transportation buffer three times (0.1 mL/well). A total of 0.1 mL pure water was added to each well to lyse the cells by repeated freezing and thawing (−196 °C–37 °C, three times). The cell lysate was collected and stored at −40 °C for LC-MS/MS analysis and protein measurement.
In the uptake study of TET by OATP1B1 and OATP1B3 expressing the HEK293 cell line, the uptake clearance (U) of the substrate was calculated according to Equation (5), the transporter-mediated uptake ratio (UR) was calculated by dividing the uptake clearance from transporter-expressing cells to that from the mock cells according to Equation (6), and the inhibition ratio (IR) was calculated according to Equation (7), where p represents the protein content and T is the duration of the incubation time. (5) U=Clysate/p×T (6) UR=U/UMOCK (7) IR=(1−Uwith inhibitor−Umock with inhibitor/Uwithout inhibitor−Umock without inhibitor)×100

The nature of data set [2]: In vitro experiments for fup, fu,mic and Rb/p used in the well-stirred model. It counts as in vitro ADME. As for the experimental part: (§1) (3) CLint,scaled=CLint,app×45mg microsomes/g liver×g liver/kg body weight (4) CLh,blood=Q×fu,p/Rb/p×CLint/fu,mic/Q+CLint·fu,p/Rb·CLint/fu,mic
For data set [3], the system named is CYP3A. To be noted: cited from earlier work.
The target of data set [4] is MDR1 (P-gp) (Homo sapiens, UniProt P08183). In words: in vitro. The method, then: MDR1 expressing LLC-PK1 cells or MOCK LLC-PK1 cells were utilized to identify whether P-gp is involved in the efflux transport across the membrane barrier. Cells were cultured as described above. Cells were seeded at a density of 2 × 10^4 in Millicell® 24-well cell culture plates with a 6.5 mm insert (0.4 µm polycarbonate membrane) from Corning (Kennebunk, ME, USA) 7 days before the experiments. On the day of the experiment, transepithelial electrical resistance (TEER) was measured to assess monolayer integrity. After washing the cells twice with HBSS, transport experiments in either the apical-to-basolateral direction (A-B) or the basolateral-to-apical direction (B-A) were conducted. […] After incubating the plates at 37 °C for 2 h, samples from the receiving and donor wells (50 μL) were taken simultaneously. All the samples were stored at −40 °C for LC-MS/MS analysis.
Chain of MDR1 (P-gp) (P08183 whole entry): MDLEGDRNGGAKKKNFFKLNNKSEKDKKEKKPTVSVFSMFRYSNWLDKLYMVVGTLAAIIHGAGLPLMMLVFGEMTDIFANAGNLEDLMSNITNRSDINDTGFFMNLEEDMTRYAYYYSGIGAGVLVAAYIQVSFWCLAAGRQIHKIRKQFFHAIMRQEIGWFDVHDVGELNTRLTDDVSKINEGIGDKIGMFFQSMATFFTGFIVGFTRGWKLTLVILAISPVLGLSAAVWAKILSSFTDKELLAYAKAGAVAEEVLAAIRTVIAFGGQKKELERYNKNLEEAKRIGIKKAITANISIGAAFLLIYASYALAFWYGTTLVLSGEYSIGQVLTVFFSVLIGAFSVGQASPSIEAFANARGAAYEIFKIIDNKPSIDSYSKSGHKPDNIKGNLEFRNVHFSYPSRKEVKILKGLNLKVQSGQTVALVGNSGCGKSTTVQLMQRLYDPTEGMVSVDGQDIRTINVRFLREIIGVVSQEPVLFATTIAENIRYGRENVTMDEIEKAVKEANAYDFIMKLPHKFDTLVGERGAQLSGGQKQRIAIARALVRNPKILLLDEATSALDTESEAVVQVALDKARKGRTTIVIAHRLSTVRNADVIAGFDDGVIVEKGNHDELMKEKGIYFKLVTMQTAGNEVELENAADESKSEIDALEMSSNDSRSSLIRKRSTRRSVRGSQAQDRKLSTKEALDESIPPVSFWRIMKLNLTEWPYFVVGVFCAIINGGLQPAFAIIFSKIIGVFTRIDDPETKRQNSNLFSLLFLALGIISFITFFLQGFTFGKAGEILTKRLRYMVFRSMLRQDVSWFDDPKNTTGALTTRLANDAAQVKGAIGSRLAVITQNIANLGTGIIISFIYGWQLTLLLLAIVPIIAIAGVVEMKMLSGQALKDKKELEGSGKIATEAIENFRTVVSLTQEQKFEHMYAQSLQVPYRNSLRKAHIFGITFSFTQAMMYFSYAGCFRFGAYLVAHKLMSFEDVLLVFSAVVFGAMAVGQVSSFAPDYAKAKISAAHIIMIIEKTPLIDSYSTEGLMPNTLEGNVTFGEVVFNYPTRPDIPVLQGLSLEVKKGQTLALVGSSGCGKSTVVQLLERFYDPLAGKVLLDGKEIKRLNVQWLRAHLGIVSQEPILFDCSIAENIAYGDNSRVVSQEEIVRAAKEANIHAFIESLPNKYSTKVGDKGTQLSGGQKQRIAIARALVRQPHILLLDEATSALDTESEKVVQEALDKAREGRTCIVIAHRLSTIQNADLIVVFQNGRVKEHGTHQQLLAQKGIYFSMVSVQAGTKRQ
In the bidirectional transport study in LLC-PK1 cells, the following equations were used to calculate Papp values and the MDR1 efflux ratio.

Data set [5] is described as follows: Metabolic stability of TET in NADPH-supplemented liver microsomes from normal and LPS-induced ALI mice. It counts as in vitro ADME, mouse. Conditions: for half-life at 1 µM: mouse, microsomes, 1.0 µM TET, 0.5 mg/mL protein, 37 °C, read-out: In vitro t1/2. The method, then:
Liver and pulmonary microsomes from normal and LPS-induced pulmonary infected mice were isolated according to the conventional differential centrifugation approach. In brief, six normal mice and six acute pneumonia mice (48 h after i.t. administration of LPS) were sacrificed. Lungs and livers were harvested and rinsed with ice NS. The tissues were weighed and homogenized with 50 mM Tris buffer solution (TBS, m:v = 1:3). The prepared homogenate was then immediately centrifuged at 10,000× g at 4 °C for 20 min. The resulting supernatant was further centrifuged at 105,000× g at 4 °C for 60 min to yield mouse liver microsomes (MLM) and mouse pulmonary microsomes (MPM). The sediment was resuspended with storage buffer (50 mM TBS containing 0.25 M sucrose and 20% glycerol) and stored at −80 °C immediately. The protein content of the harvested microsomes was measured following the BCA protein assay protocol.
TET (1 μM, 1% acetonitrile) was incubated in normal or pneumonia mice liver microsomes or pulmonary microsomes (0.5 mg/mL) diluted with 100 mM PBS (pH 7.4) containing MgCl2 (3 mM). After preincubation of 5 min, the reaction was initiated by adding NADPH (final concentration of 1 mM) at 37 °C. Periodic aliquots of the incubation mixture at 0, 15, 30, and 45 min were removed, and the protein was precipitated with ice-cold acetonitrile containing IS. After centrifugation, the supernatant was collected and analyzed for the depletion of TET by LC-MS/MS.
The in vitro t1/2 in mouse liver microsomal incubation was calculated from the semi-log plot of percentage remaining vs. incubation time and intrinsic clearance (CLint,app mL/min/mg protein) was calculated as Equation (2).
as §1
In general terms: Liver microsomes are a subcellular fraction often used to study metabolism.

As for `COc1ccc2cc1Oc1ccc(cc1)C[C@H]1c3cc(c(OC)cc3CCN1C)Oc1c(OC)c(OC)cc3c1[C@H](C2)N(C)CC3` [TET, Tetrandrine], in data set [1] (5 µM), the “Inhibition Ratio” value is given as 20.6, the “Uptake Clearance” value turned out to be 120 ± 8.61 nM/min/mg Protein and the “Uptake Ratio” value amounted to 1.01. In data set [1] (5 μM), the “Uptake Clearance” value stood at 151 ± 25.5 nM/min/mg Protein. Also, in data set [2], the Rb/p is 2.39 and the fup amounted to 0.01. Moreover, the unbound share (fraction unbound) – broadly, free concentration divided by total concentration – in data set [2] (obtained from in vitro experiments) came out at 0.18. The “fm (CYP3A, major isoform toward TET)” value in data set [3] is more than 90%. Moreover, the apparent permeability from apical to basolateral (Papp A→B) – broadly, how fast a substance crosses the layer from the apical side – at 2 h in data set [4] was found to be 0.52 ± 0.19 ×10⁻⁶ cm/s. In addition, in data set [4] (human, LLC-PK1), the apparent permeability from basolateral to apical (Papp B→A) (as a rule, how fast a substance crosses the layer from the basolateral side) at 2 h came out at 14 ± 2.95 ×10⁻⁶ cm/s and the efflux ratio (in general, the permeability from basolateral to apical divided by that in the opposite direction, in the common usage) at 2 h is 32.5. Also, the “CLhep,blood (hepatic clearance, well-stirred model)” value in data set [5] (LPS-treated mice liver microsomes) was 1.48 mL/min/kg and 1.48 ± 0.0136 mL/min/kg. Besides, the half-life at 1 µM in data set [5] (pH 7.4, LPS-treated mice liver microsomes) was 1.4 ± 0.013 h. Moreover, the half-life at 1 µM in data set [5] (pH 7.4, normal mice liver microsomes) was determined as 0.88 ± 0.0292 h. For the same molecule, in data set [5] (normal mice liver microsomes), the “CLhep,blood (hepatic clearance, well-stirred model)” value is 2.33 mL/min/kg and 2.33 ± 0.075 mL/min/kg.
